In patent publication US20260027073A1, “USE OF SMALL-MOLECULE COMPOUND HAVING NAPHTHYLAMINE STRUCTURE” (HANGZHOU PHECDAMED CO., LTD., priority 2023, published 2026):
Values joined by “and” are separate entries in the source; they are usually repeats but may differ in a detail not shown here. Identical values can stand only once.

Key:
[1] = system: autoimmune myocarditis model rats; assay: Autoimmune myocarditis model; assay type: in vivo, Lewis rats; settings: for left ventricular end-diastolic transverse diameter LVIDd / left ventricular end-systolic transverse diameter LVIDs / ejection fraction EF / short-axis fractional shortening FS / serum CK-MB level: 30 mg/kg oral gavage, 4 weeks; for left ventricular end-diastolic transverse diameter LVIDd / left ventricular end-systolic transverse diameter LVIDs: FIG. 79; for ejection fraction EF / short-axis fractional shortening FS: FIG. 80; for serum CK-MB level: FIG. 81
Method: 8-week-old male SPF-grade Lewis rats were adaptively fed for one week to construct an autoimmune myocarditis model. The rats were divided into two groups, normal control group (normal rats, routine feeding) and model group, in which porcine cardiac myosin used to induce autoimmunity and Freund's adjuvant were fully mixed in 1:1 in the model group (purified porcine cardiac myosin was dissolved in PBS solution, with its concentration being controlled to 10 g/L, under sterile conditions the solution was mixed with the complete Freund's adjuvant CFA in 1:1 equal volume and emulsified completely, so that it became a homogeneous emulsion), a total of 0.2 ml of the immunization mixture was injected subcutaneously into multiple points such as the bilateral groin and axilla of the rats. Normal control rats were immunized with myosin-free PBS and CFA emulsion. From the 14th day after immunization, the model groups were administrated in groups, and were divided into three groups: model group (model, treated with 0.5% CMC-Na by oral gavage, n=8) TJ01-013 treatment group (TJ01-013, 30 mg/kg TJ01-013 by oral gavage, n=8), I-14-1 treatment group (I-14-1, 30 mg/kg I-14-1 by oral gavage, n=8). A normal control group (Control, treated with 0.5% CMC-Na by oral gavage, n=8) was further provided, and the administration of the drug was started immediately after grouping, and the drug was administered for a total of 4 weeks. At the end of the administration, rats were weighed, anesthetized and blood was taken, and serum was extracted and the corresponding physiological indexes were detected. After euthanasia, the rats' hearts were stripped and weighed, and the organ coefficients of the hearts were calculated.
After the end of administration, rats were weighed, anesthetized with 10% chloral hydrate via intraperitoneal injection, and then subjected to echocardiography in the supine and slightly left lateral position after chest hair removal, and the average value was taken from 3 repetitions. The detection indexes include left ventricular end-diastolic transverse diameter LVIDd, left ventricular end-systolic transverse diameter LVIDs, short-axis fractional shortening FS, and ejection fraction EF.

[2] = system: rats with 5/6 nephrectomy; assay: 5/6 nephrectomy-induced renal injury; assay type: in vivo, SD rats
Method: 5/6 nephrectomy directly leads to a large reduction of renal units, high workload of residual renal units, and combined hypertension (or non-hypertension), and these features are similar to the symptoms of patients with clinical nephrectomy, CKD hypertensive syndrome, and solitary kidney, and like, and the pathological changes are dominated by glomerulosclerosis and tubulo-fibrosis, which is a good model for the study of CKD. The model was prepared as follows, 230-250 g male SD rats were anesthetized with isoflurane gas, and an incision of about 3 cm at 1 cm left and below of the cribriform ridge corner was made, fully exposing the left kidney, and after exposing the kidney in the sham group, the muscle and skin were sutured with sutures, during which there was no ligation and no resection. In the model group, about ⅓ of the cortex of the upper and lower left kidney was cut with ophthalmic surgical scissors, and was pressed with the absorbable gelatin sponge to stop bleeding for 3 min, then the hemostatic clip was released, and whether there is obvious bleeding was observed and the residual kidney was reset, and the muscle and skin were sutured with sutures. After 1 week, the second surgery was performed, and after fully exposing the right kidney, the renal pedicle and the ureter were ligated, and the right kidney was resected. Similarly, in the sham group, after exposing the kidney, the muscle and skin were sutured with sutures, during which there was no ligation and no resection. Penicillin (80 kU/rat) was routinely injected for three days after surgery. […] In the experiment, 10 d after the end of the right nephrectomy surgery, the serum creatinine level of rats increased, which was statistically significant compared to the sham group, and began to be administered in groups.
The experiments were conducted in sham group (exposing both kidneys without resection), Control group (model group, given vehicle treatment by oral gavage), and 15 mg/kg I-1 group (15 mg/kg by oral gavage), respectively, during the experimental period, a drug was administered once a day for a total of 27 days, and the 24-hour urine of the rats in each group was collected by metabolism cages on the 28th day to measure the volume of urine, urine creatinine, and urine protein. At the same time, blood was collected from the heart, and the blood was centrifuged at 12000 g for 10 min at 4° C. after standing at room temperature for 45 min, the supernatant (serum) was taken to measure the creatinine level in the serum, and finally the creatinine clearance was calculated. After euthanasia of rats at endpoint of the test, the kidneys were dissected and removed, in which four kidneys of rats were fixed with 4% paraformaldehyde for 48 h, paraffin-embedded, sectioned, and HE stained as described above.

[3] = system: rats of adenine induced kidney injury model; assay: Adenine-induced kidney injury; assay type: in vivo, SD rats
Method: Adenine-induced kidney injury is an animal model of chronic kidney injury. The model was prepared as follows: 1500 mg/kg of potassium oxonate and 50 mg/kg of adenine were ground and suspended in 0.5% carboxymethylcellulose sodium (CMC-Na) solution and gavaged once a day in a volume of 10 mL/kg for 180-200 g male SD rats, and an equal dose of 0.5% CMC-Na solution was gavaged for the sham group. After 1 week of modeling, serum creatinine (Cr) was measured weekly to determine whether the model was successful or not; in this experiment, there was a statistically significant difference in serum creatinine elevation on the 21st day of modeling compared with that of the sham group, at this time, administration in group was initiated, and the shock modeling with 1500 mg/kg of potassium oxonate and 50 mg/kg of adenine was continued daily along with the administration. The test was divided into three groups according to the serum creatinine level, sham operation group (sham group, without adenine modeling and vehicle treatment by oral gavage), control group (model control group, vehicle treatment by oral gavage), and 15 mg/kg group (15 mg/kg compound I-1 by oral gavage), and the dosage was once a day in the volume of 10 ml/kg for 21 consecutive days. […] At the end of the administration, blood was collected from the heart, and the blood was centrifuged at 12000 g for 10 minutes at 4° C. after standing at room temperature for 45 minutes, and the supernatant (serum) was extracted to measure the levels of creatinine and uric acid in the serum. After euthanasia of rats at endpoint of test, rats were dissected and kidneys were taken, of which 4 kidneys were fixed with 4% paraformaldehyde for 48 h, embedded in paraffin, sectioned, and HE stained, the specific staining operation was as described above. The left kidney tissue was taken and ground, and the inflammatory factors IL-10 and TNFα were detected by Elisa method.

[4] = Degree of lesion +++ (severe lesions), 15 mg/kg
[5] = Degree of lesion ± (slight lesions), 15 mg/kg

O=C(O)C[S+]([O-])c1cc(NS(=O)(=O)c2ccc(C(F)(F)F)cc2)c2ccccc2c1O (stereo not shown) [I-14-1]
left ventricular end-diastolic transverse diameter LVIDd [1]: reduce
left ventricular end-systolic transverse diameter LVIDs [1]: reduce
ejection fraction EF [1]: increase
short-axis fractional shortening FS [1]: increase
serum CK-MB level [1]: decrease

O=C(O)C[S+]([O-])c1cc(NS(=O)(=O)c2ccc(Br)cc2)c2ccccc2c1O (stereo not shown) [I-1]
24 h urine protein content ([2]; 15 mg/kg oral gavage, 27 days, FIG. 6): significantly reduced
blood creatinine level ([2]; 15 mg/kg oral gavage, 27 days, P<0.001, FIG. 5): significantly reduced
body weight ([2]; 15 mg/kg oral gavage, 27 days, vs model group, P<0.05, FIG. 4): significant increase
degree of lesions in the renal tissues (HE staining) ([2]; 15 mg/kg, 27 days, FIG. 8): improved the degree of lesions
creatinine clearance rate ([2]; 15 mg/kg, 27 days, vs model control, FIG. 7): improvement trend
Renal lesions (number of kidneys, n = 4) [2, 4]: 0
Renal lesions (number of kidneys, n = 4) [2, 5]: 0
Renal lesions (number of kidneys, n = 4) ([2]; Degree of lesion − (no lesions seen), 15 mg/kg): 0
body weight ([3]; 15 mg/kg oral gavage, 21 days, FIG. 9): no significant change
TNF-α level in kidney tissues ([3]; 15 mg/kg, 21 days, FIG. 12): significantly decreased
renal histopathology (HE staining) ([3]; 15 mg/kg, 21 days, FIG. 13): improved the histopathology of adenine-induced renal injury to some extent
serum urea nitrogen level ([3]; 15 mg/kg, 21 days, P<0.05, FIG. 11): significantly decreased
Serum creatinine decreased by ([3]; 15 mg/kg, after 21 days, P<0.05, FIG. 10): 20.7%
Renal lesion (number of kidneys, n = 4) ([3]; Degree of lesion + (mild lesions), 15 mg/kg): 1/4 and 1
Renal lesion (number of kidneys, n = 4) ([3]; Degree of lesion ++ (moderate lesions), 15 mg/kg): 3/4 and 3
Renal lesion (number of kidneys, n = 4) [3, 4]: 0
Renal lesion (number of kidneys, n = 4) [3, 5]: 0
Renal lesion (number of kidneys, n = 4) ([3]; Degree of lesion − (no lesions), 15 mg/kg): 0
left ventricular end-diastolic transverse diameter LVIDd [1]: reduce
left ventricular end-systolic transverse diameter LVIDs [1]: reduce
ejection fraction EF [1]: increase
short-axis fractional shortening FS [1]: increase
serum CK-MB level [1]: decrease
treatment of TJ01-013 compared with I-14-1 ([1]; LVIDd/LVIDs, EF/FS, CK-MB): significantly better

O=C(O)CSc1cc(NS(=O)(=O)c2ccc(Br)cc2)c2ccccc2c1O [UMI-77, reference compound]
protection against 5/6 nephrectomy-induced renal injury compared with I-1 group ([2]; UMI-77 vs I-1): less protective
treatment of adenine-induced renal injury compared with I-1 ([3]; UMI-77 vs I-1): less effective
